Laboratory results: patent US20250305004A1, “ENHANCING GENE TARGETING EFFICIENCY IN HUMAN CELLS WITH DNA-PK INHIBITOR TREATMENT” (The Board of Trustees of the Leland Stanford Junior …, priority 2022, published 2025)

How the values were obtained:
PI3Kγ = target: T1, PI3Kγ (Homo sapiens, UniProt P48736); settings: A549 cells; cited from earlier work
T1 construct: various PI3K family kinases in A549 cells (data adapted from previous study); host or cells: A549 cells

HBB locus in PSCs = experiment: RNP/AAV6 gene targeting at HBB locus in PSCs; assay type: cell-based, human; settings: UBC-GFP-bGHpA knock-in; 0.5 μM
Protocol: (§1) Gene targeting efficiency was measured by droplet digital PCR (ddPCR) and flow cytometry (for GFP) to measure the allelic targeting efficiency (FIG. 2B) and percentage of targeted cells (FIG. 2C) respectively. […] The treatment was carried out for 24 hours post gene targeting and the efficiency was calculated 1 week post gene targeting using ddPCR analysis.
(§2) First, we tested the treatment for editing the sickle cell disease (SCD) and cystic fibrosis (CF) mutations at HBB and CFTR loci respectively using the previously described Cas9 RNP and AAV6 donor reagents in WT PSC^71-73 (FIG. 19a-d).
PSC culture and genome editing. […] Gene targeting efficiency was analyzed at 4-6 days post-editing.
(§3) ddPCR analysis of targeted integration. Gene targeting efficiency for the knock-in of multi-kb sequences was measured through digital droplet PCR (ddPCR) analysis. […] After PCR, the droplets were analyzed using the QX200 Droplet Digital PCR reader (Biorad) and Quantasoft software was used to determine the number of copies of the target and reference DNA in the droplets. The allelic gene targeting efficiency was calculated as the percentage of target DNA copies relative to that of the reference. […]
(§4) ICE analysis for quantification of gene editing. […] Following PCR, the amplicons were detected on agarose gel and purified from the gel using GeneJet Gel Extraction Kit (Thermo Fisher Scientific, cat: K0692). […]

ATM = target: T2, ATM (Homo sapiens, UniProt Q13315); settings: A549 cells; cited from earlier work
T2 construct: various PI3K family kinases in A549 cells (data adapted from previous study); host or cells: A549 cells
T2 sequence (Q13315 whole entry): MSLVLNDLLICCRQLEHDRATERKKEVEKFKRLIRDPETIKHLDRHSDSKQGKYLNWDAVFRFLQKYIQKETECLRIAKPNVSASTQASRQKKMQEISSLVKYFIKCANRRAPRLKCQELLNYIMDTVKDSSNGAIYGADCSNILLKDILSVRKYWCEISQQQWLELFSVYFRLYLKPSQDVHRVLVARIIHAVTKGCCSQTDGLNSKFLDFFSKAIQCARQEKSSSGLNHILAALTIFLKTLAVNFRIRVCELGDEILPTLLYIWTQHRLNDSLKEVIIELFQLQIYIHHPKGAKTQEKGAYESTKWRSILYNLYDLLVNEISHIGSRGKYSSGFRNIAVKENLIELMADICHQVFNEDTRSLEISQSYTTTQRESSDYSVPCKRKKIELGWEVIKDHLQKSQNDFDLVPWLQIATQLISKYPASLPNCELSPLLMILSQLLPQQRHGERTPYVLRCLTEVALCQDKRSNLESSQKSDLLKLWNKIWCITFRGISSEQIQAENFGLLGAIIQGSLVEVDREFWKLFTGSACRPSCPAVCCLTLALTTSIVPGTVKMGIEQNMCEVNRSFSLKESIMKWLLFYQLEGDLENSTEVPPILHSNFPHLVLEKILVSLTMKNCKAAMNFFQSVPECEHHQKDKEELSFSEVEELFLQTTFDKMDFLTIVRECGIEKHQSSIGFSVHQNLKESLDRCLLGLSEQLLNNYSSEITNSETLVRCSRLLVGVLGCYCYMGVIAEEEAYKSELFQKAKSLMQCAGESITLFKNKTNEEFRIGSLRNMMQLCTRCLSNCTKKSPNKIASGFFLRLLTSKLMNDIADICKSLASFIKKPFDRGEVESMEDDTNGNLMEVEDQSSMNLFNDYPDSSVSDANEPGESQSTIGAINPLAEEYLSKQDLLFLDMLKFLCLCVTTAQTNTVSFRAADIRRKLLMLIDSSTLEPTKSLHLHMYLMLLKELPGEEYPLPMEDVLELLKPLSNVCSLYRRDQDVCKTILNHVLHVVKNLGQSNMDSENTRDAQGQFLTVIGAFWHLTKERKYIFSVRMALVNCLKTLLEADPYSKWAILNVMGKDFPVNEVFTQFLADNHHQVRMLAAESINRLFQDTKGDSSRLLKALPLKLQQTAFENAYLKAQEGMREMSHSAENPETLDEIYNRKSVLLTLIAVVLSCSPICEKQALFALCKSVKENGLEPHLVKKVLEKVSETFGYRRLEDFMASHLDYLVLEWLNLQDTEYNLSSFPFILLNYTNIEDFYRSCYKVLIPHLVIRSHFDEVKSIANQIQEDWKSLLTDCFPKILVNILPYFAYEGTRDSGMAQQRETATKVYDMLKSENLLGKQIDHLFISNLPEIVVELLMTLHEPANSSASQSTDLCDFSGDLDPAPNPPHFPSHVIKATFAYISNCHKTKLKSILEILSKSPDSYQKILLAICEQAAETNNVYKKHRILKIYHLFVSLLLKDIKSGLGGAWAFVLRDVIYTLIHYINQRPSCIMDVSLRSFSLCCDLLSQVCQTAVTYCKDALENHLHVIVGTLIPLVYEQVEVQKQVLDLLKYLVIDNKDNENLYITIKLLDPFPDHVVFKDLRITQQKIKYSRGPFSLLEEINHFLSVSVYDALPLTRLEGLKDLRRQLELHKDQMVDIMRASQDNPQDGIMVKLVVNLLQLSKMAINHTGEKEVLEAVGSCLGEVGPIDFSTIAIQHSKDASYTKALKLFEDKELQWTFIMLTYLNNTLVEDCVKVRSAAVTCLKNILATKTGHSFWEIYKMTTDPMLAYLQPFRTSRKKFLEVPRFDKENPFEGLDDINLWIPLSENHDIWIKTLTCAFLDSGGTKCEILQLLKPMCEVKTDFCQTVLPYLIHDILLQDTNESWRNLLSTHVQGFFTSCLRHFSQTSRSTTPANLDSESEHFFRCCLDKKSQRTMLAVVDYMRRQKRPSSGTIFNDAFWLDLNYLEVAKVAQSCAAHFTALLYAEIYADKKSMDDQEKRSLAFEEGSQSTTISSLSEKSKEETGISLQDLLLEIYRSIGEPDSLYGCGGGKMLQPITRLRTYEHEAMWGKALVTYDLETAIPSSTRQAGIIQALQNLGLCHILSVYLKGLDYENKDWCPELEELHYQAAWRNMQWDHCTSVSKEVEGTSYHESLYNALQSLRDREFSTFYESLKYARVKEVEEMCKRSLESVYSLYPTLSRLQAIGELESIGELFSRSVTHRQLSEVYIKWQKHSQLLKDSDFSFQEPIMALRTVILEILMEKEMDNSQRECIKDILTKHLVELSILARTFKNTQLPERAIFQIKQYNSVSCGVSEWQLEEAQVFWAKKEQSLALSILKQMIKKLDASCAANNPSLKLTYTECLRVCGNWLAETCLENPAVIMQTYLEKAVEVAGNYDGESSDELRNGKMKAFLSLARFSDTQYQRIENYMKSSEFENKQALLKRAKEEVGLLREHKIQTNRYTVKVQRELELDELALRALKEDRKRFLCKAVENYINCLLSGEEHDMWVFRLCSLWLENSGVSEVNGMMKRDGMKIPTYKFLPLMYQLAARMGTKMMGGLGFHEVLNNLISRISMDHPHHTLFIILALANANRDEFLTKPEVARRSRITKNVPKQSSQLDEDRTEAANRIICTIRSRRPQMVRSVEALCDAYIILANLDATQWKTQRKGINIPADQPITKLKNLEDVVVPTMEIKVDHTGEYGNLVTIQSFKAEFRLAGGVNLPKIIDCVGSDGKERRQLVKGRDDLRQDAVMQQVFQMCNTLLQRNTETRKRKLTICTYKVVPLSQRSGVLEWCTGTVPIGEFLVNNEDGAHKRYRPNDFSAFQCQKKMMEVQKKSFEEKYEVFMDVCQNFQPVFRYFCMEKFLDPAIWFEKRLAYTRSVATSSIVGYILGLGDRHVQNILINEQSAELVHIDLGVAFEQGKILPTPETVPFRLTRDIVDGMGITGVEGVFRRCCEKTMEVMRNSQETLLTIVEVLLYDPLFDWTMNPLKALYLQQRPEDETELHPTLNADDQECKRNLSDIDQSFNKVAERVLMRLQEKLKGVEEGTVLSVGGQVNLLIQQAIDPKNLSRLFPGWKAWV

HBA1 locus in PSCs = experiment: RNP/AAV6 gene targeting / gene replacement at HBA1 locus in PSCs; assay type: cell-based, human
Protocol: as §1, §2
PSC culture and genome editing. […] For each nucleofection, RNP complex was prepared with 5 μg of Cas9 protein and 2 μg of gRNA and incubated for 15 mins at room temperature. PSCs were dissociated into single cells using Accutase (Innovative Cell Technologies, cat: AT104). […] Resuspended cells were added to one well of a 16-well Nucleocuvette Strip (Lonza) and nucleofection was performed in the 4D nucleofector (Lonza) using the program, CA137. Nucleofected PSCs were plated in mTeSR1 medium supplemented with 10 μM of Y27632 at a density of 100,000 cells per well in 48-well plate, AAV6 vector and DNA-PKcs inhibitors were added to the medium at indicated concentrations. […] From the following day, PSCs were cultured in mTeSR1 without Y27632. Gene targeting efficiency was analyzed at 4-6 days post-editing.
as §3, §4

ATR = target: T3, ATR (Homo sapiens, UniProt Q13535); settings: A549 cells; cited from earlier work
T3 construct: various PI3K family kinases in A549 cells (data adapted from previous study); host or cells: A549 cells

CCR5 locus in PSCs = experiment: RNP/AAV6 gene targeting at CCR5 locus, knock-in of UBC-GFP-bGHpA (2.6 kb), PSCs; assay type: cell-based, human; settings: tested at 1, 0.1 and 0.01 μM
Protocol: as §1
PSC culture and genome editing. […] For each nucleofection, RNP complex was prepared with 5 μg of Cas9 protein and 2 μg of gRNA and incubated for 15 mins at room temperature. PSCs were dissociated into single cells using Accutase (Innovative Cell Technologies, cat: AT104). […] Gene targeting efficiency was analyzed at 4-6 days post-editing.
as §3, §4

T1 sequence (P48736 whole entry): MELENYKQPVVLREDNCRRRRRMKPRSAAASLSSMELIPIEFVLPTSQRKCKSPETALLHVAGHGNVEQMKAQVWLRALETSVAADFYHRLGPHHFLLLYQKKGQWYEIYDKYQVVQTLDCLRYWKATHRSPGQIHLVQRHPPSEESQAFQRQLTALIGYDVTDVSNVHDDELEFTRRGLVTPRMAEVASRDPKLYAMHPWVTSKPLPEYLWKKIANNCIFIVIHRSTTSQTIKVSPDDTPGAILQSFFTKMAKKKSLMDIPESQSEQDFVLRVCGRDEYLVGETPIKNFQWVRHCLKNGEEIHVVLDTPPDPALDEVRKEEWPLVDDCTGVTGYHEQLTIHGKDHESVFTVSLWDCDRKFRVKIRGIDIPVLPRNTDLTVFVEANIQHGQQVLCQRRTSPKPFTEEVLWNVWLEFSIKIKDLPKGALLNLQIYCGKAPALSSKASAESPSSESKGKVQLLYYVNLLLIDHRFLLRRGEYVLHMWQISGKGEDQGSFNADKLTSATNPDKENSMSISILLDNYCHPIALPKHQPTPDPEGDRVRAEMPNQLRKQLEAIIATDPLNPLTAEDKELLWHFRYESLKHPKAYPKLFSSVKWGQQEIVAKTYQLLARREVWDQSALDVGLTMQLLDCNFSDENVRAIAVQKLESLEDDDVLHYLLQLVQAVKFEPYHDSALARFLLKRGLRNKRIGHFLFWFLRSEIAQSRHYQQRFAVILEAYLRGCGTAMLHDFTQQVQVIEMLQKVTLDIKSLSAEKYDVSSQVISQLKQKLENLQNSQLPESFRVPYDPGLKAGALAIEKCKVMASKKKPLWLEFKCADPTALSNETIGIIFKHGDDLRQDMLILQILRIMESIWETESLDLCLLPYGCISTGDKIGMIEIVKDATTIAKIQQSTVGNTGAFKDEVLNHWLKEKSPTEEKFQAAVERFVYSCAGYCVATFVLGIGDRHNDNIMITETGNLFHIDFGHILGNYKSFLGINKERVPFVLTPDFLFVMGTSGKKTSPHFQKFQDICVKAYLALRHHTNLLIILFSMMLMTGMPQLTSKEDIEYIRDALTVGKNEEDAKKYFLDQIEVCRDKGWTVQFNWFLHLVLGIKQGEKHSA

COc1ccc([C@@H](O)c2cc(-c3ncnc4cc(N5CCOCC5)ccc34)c(F)cc2Cl)nn1 [M3814]
IC50 (PI3Kγ): 1.59 µM
effect on gene targeting vs untreated (HBB locus in PSCs): less prominent effect
IC50 (ATM): > 30 µM
effect on gene targeting vs untreated (HBA1 locus in PSCs; 0.5 μM): less prominent effect
concentration at which gene replacement is improved (HBA1 locus in PSCs; tested at 2 and 0.5 μM): effective only at the higher concentration
IC50 (ATR): > 30 µM
concentration at which gene targeting is enhanced (CCR5 locus in PSCs): effective only at 1 μM
